According to patent publication US12691178B2, “Polysorbate mixtures having modified fatty acid ester distribution” (Genentech, Inc., priority 2020, dated 2026):
Converted amounts (≈) assume the structure as drawn.

Assay: FFA solubility at different formulation pH at constant PS20 concentration, fit to modified Henderson-Hasselbalch equation
Format: physicochemical
Conditions: constant of the 'pH term' of the FFA solubility model (Equation 1); for solubility: formulation containing PS20, aqueous with cosolvent or surfactant or cyclodextrin, read-out: Solubility of the non-ionized FFA (β1); for pKa: formulation containing polysorbate 20 (PS20), read-out: Experimentally determined pKa (β2)
Method: To create the model, first, FFA solubility was measured at different formulation pH's at a constant PS20 concentration. […] Second, FFA solubility was measured at different PS20 concentrations at a constant pH.

| Structure (SMILES) | solubility [µg/mL] | pKa |
| --- | --- | --- |
| CCCCCCCCCCCC(=O)O [Lauric (C12) Acid, lauric acid] | 9.97 (≈ 49.8 µM) | 5.71 |
| CCCCCCCCCCCCCC(=O)O [Myristic (C14) Acid, myristic acid] | 3.87 (≈ 16.9 µM) | 6.67 |
